Laboratory results as given in the supplement of paper PMC10307832.

Columns and labels:
Assay in all cases: relative viability (nuclei count vs DMSO), 5 days (fraction); higher = more cells survive
[1] = compound: O=C(NC1CCNCC1)c1n[nH]cc1NC(=O)c1c(Cl)cccc1Cl [AT-7519] + Cc1nc(NC(=O)N2CCC[C@H]2C(N)=O)sc1-c1ccnc(C(C)(C)C(F)(F)F)c1 [Alpelisib] (partner 2 µM)
Method in brief: (§1)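 Cells from lung cancer lines were seeded into 1536-well plates and, one day later, dosed by pin tool. Treatments were either a single drug or a fixed dose of an anchor drug with five library-drug doses (not always all listed) in √10 steps. After 5 days, nuclei were stained in a one-step fixation (final 0.05% Triton X-100, 1% formaldehyde, 1 ug/ml Hoechst) and counted on 4× images, and relative viability is the treated-to-vehicle nuclei ratio, as the median of duplicate plates.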

[2] = compound: C1=CC2=C(C=C(C(=C2N=C1)O)N=NC3=CC4=C(C=C3)C=C(C=C4)S(=O)(=O)O)S(=O)(=O)O + N=C(N)NC(=N)NCCc1ccccc1 [Phenformin] (partner 250 µM)
Method in brief: as §1

[3] = compound: C1=CC2=C(C=C(C(=C2N=C1)O)N=NC3=CC4=C(C=C3)C=C(C=C4)S(=O)(=O)O)S(=O)(=O)O + CC1(C)CCC(c2ccc(Cl)cc2)=C(CN2CCN(c3ccc(C(=O)NS(=O)(=O)c4ccc(N[C@H](CCN5CCOCC5)CSc5ccccc5)c(S(=O)(=O)C(F)(F)F)c4)cc3)CC2)C1 [Navitoclax] (partner 0.5 µM)
Method in brief: as §1

[4] = compound: O=C(NC1CCNCC1)c1n[nH]cc1NC(=O)c1c(Cl)cccc1Cl [AT-7519] + CCNC(=O)c1noc(-c2cc(C(C)C)c(O)cc2O)c1-c1ccc(CN2CCOCC2)cc1 [Luminespib] (partner 0.01 µM)
Method in brief: as §1

Cell Line | relative viability ([1]; first compound 0.01 µM) | relative viability ([1]; first compound 0.03162 µM) | relative viability ([1]; first compound 0.3162 µM) | relative viability ([1]; first compound 1 µM) | relative viability ([2]; first compound 0.08 µM) | relative viability ([2]; first compound 0.253 µM) | relative viability ([2]; first compound 0.8 µM) | relative viability ([2]; first compound 2.53 µM) | relative viability ([2]; first compound 8 µM) | relative viability ([3]; first compound 0.08 µM) | relative viability ([3]; first compound 0.253 µM) | relative viability ([3]; first compound 0.8 µM) | relative viability ([3]; first compound 2.53 µM) | relative viability ([3]; first compound 8 µM) | relative viability ([4]; first compound 0.01 µM) | relative viability ([4]; first compound 0.03162 µM) | relative viability ([4]; first compound 0.3162 µM) | relative viability ([4]; first compound 1 µM)
201T | 0.972 | 1.05 | 1.02 | 1.09 | 0.458 | 0.426 | 0.458 | 0.433 | 0.306 | 1.24 | 1.21 | 1.22 | 1.27 | 1.16 | 1.12 | 1.07 | 1.04 | 1.05
A549 | 0.882 | 0.708 | 0.69 | 0.322 | 0.203 | 0.155 | 0.189 | 0.186 | 0.0602 | 1.18 | 1.16 | 1.27 | 1.17 | 0.934 |  |  |  | 
A-427 | 1.11 | 1.06 | 1.01 | 0.453 | 0.324 | 0.293 | 0.283 | 0.288 | 0.313 | 1.06 | 1.04 | 0.83 | 1.12 | 1.02 | 1.07 | 0.88 | 1.06 | 0.184
ABC-1 | 0.962 | 1.01 | 0.724 | 0.416 | 0.236 | 0.245 | 0.236 | 0.237 | 0.245 |  |  |  |  |  | 0.75 | 0.582 | 0.347 | 0.206
BEN | 1.03 | 0.954 | 1.12 | 0.76 | 0.254 | 0.274 | 0.267 | 0.298 | 0.234 | 0.0579 | 0.0527 | 0.0545 | 0.0678 | 0.0519 | 0.303 | 0.307 | 0.231 | 0.361
CAL-12T | 1.27 | 1.02 | 0.534 | 0.13 | 0.536 | 0.522 | 0.502 | 0.693 | 0.358 | 1.2 | 1.45 | 1.14 | 1.5 | 1.35 | 0.438 | 0.509 | 0.15 | 0.0831
COR-L23 | 0.987 | 0.746 | 0.348 | 0.119 | 0.488 | 0.43 | 0.422 | 0.419 | 0.45 | 1 | 0.969 | 1.06 | 1.06 | 0.612 | 1 | 0.867 | 0.273 | 0.116
COR-L 105 | 1.13 | 0.996 | 0.927 | 0.507 | 0.459 | 0.464 | 0.421 | 0.441 | 0.463 | 0.905 | 0.7 | 0.779 | 0.75 | 0.843 | 0.776 | 0.942 | 0.68 | 0.521
Calu-6 | 0.995 | 1.17 | 0.877 | 0.391 |  |  |  |  |  | 0.848 | 0.916 | 0.769 | 0.952 | 0.802 |  |  |  | 
ChaGo-K-1 |  |  |  |  | 0.444 | 0.491 | 0.525 | 0.531 | 0.359 | 0.933 | 0.955 | 0.968 | 1.06 | 1 | 0.607 | 0.544 | 0.669 | 0.522
EBC-1 | 0.863 | 0.835 | 0.734 | 0.55 |  |  |  |  |  | 0.394 | 0.474 | 0.415 | 0.452 | 0.371 |  |  |  | 
EKVX | 0.836 | 0.86 | 0.76 | 0.745 | 0.237 | 0.225 | 0.235 | 0.232 | 0.139 | 0.985 | 0.868 | 0.867 | 0.98 | 1.02 | 0.988 | 0.845 | 0.846 | 0.774
EMC-BAC-2 | 0.716 | 0.699 | 0.782 | 0.746 | 0.587 | 0.561 | 0.514 | 0.526 | 0.427 | 1.45 | 1.11 | 1.13 | 1.2 | 1.11 | 1.21 | 1.17 | 1.19 | 1.14
EPLC-272H | 0.905 | 0.957 | 0.885 | 0.856 | 0.284 | 0.319 | 0.292 | 0.28 | 0.323 | 1.22 | 1.11 | 1.01 | 1.24 | 1.23 | 0.226 | 0.216 | 0.37 | 0.0726
H3255 | 0.712 | 0.678 | 0.833 | 0.519 | 0.348 | 0.377 | 0.416 | 0.394 | 0.421 | 0.502 | 0.477 | 0.487 | 0.604 | 0.646 | 0.902 | 0.936 | 0.938 | 0.974
HARA | 0.836 | 0.72 | 0.816 | 0.541 | 0.467 | 0.459 | 0.464 | 0.544 | 0.479 | 1.15 | 1.15 | 1.18 | 1.14 | 1.11 | 0.71 | 0.533 | 0.412 | 0.398
HCC-15 | 0.959 | 0.905 | 0.763 | 0.406 | 0.491 | 0.481 | 0.457 | 0.422 | 0.444 | 0.754 | 0.693 | 0.692 | 0.693 | 0.705 | 0.293 | 0.413 | 0.343 | 0.214
HCC-44 | 0.835 | 0.835 | 0.769 | 0.572 | 0.126 | 0.218 | 0.249 | 0.17 | 0.184 | 1.03 | 0.863 | 1.01 | 1.02 | 0.969 | 1.13 | 1.03 | 0.636 | 0.235
HCC-78 | 0.142 | 0.286 | 0.305 | 0.283 | 0.725 | 0.617 | 0.651 | 0.74 | 0.685 | 0.776 | 0.667 | 0.879 | 0.826 | 0.757 |  |  |  | 
